The text below walks through data of patent publication US10344060B2 (priority 2013, dated 2019).

Values joined by “and” are separate entries in the source; they are usually repeats but may differ in a detail not shown here. Equal entries are not always repeated. “Also recorded” adds a separate entry of the source. Where two headings read alike, the source gives them in different places.

The target in one experiment is mouse Nav1.4 (Mus musculus, UniProt Q9ER60). As to the kind of experiment: cell-based.
A further experiment deals with mNav1.7 (Mus musculus, UniProt Q62205). As to the kind of experiment: cell-based.
Chain of mNav1.7 (Q62205 whole entry): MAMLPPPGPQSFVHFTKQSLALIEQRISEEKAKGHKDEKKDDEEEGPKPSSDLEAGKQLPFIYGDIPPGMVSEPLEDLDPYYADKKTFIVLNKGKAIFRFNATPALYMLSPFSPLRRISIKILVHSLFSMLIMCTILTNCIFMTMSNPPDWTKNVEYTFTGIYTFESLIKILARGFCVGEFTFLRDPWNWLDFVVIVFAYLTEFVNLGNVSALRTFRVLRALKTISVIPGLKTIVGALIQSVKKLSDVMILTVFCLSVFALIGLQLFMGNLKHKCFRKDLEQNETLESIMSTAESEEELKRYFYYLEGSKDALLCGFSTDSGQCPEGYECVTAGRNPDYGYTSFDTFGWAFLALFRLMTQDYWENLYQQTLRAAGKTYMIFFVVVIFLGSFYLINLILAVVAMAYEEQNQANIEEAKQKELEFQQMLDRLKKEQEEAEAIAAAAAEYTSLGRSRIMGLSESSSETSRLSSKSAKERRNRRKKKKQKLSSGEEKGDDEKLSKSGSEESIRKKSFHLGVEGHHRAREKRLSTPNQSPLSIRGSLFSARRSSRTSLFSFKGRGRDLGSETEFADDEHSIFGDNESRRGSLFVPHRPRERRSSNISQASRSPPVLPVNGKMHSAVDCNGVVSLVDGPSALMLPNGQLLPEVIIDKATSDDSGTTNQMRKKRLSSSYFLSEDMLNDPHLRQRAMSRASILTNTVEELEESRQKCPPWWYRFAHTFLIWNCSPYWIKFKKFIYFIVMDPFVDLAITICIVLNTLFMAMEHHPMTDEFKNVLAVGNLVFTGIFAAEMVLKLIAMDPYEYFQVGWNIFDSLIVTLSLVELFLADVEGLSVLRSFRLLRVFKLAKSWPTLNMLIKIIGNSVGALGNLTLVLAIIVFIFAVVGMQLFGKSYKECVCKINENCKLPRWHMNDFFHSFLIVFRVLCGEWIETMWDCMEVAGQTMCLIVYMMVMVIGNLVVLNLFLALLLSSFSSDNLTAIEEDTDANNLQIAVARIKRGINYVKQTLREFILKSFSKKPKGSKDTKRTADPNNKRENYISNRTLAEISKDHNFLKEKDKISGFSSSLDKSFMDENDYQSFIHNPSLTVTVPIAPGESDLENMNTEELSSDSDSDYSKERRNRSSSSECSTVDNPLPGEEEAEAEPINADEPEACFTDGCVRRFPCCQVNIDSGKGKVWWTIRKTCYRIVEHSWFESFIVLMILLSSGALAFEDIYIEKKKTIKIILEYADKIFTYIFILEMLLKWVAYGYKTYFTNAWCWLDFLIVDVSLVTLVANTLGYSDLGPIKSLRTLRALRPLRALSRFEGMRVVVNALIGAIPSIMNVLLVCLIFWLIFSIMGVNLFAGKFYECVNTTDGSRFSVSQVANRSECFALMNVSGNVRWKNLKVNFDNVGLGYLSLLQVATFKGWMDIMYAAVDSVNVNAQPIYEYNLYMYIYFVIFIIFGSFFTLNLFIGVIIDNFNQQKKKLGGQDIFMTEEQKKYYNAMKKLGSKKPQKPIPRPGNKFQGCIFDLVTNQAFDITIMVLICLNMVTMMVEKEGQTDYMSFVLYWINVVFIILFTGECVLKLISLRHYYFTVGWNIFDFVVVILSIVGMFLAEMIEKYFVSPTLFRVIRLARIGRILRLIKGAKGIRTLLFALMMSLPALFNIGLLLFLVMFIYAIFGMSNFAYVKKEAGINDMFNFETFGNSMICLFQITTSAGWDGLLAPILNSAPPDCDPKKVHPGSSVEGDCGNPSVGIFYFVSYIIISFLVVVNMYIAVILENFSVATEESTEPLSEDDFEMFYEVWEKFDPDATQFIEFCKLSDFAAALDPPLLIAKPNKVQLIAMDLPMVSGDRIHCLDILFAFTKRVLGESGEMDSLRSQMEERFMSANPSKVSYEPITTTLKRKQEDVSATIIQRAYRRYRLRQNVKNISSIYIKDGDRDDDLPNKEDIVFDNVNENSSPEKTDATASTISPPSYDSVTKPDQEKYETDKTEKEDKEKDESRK
A further experiment addresses rNav1.7 (Rattus norvegicus, UniProt O08562). Put plainly: cell-based.
The target in another experiment is hNav1.6 (Homo sapiens, UniProt Q9UQD0). As to the kind of experiment: cell-based. The note with it: Table 15. The experiment is classed as cell-based.
The target of experiment [1] is T1, hNav1.7 (Homo sapiens, UniProt Q15858). As to the kind of experiment: cell-based. The settings on record: for block of hNav1.7 current, in words: 100 pM; for 1.x/1.7: hNav1.7 / hNav1.7. The class given is cell-based.
T1 sequence (Q15858 whole entry): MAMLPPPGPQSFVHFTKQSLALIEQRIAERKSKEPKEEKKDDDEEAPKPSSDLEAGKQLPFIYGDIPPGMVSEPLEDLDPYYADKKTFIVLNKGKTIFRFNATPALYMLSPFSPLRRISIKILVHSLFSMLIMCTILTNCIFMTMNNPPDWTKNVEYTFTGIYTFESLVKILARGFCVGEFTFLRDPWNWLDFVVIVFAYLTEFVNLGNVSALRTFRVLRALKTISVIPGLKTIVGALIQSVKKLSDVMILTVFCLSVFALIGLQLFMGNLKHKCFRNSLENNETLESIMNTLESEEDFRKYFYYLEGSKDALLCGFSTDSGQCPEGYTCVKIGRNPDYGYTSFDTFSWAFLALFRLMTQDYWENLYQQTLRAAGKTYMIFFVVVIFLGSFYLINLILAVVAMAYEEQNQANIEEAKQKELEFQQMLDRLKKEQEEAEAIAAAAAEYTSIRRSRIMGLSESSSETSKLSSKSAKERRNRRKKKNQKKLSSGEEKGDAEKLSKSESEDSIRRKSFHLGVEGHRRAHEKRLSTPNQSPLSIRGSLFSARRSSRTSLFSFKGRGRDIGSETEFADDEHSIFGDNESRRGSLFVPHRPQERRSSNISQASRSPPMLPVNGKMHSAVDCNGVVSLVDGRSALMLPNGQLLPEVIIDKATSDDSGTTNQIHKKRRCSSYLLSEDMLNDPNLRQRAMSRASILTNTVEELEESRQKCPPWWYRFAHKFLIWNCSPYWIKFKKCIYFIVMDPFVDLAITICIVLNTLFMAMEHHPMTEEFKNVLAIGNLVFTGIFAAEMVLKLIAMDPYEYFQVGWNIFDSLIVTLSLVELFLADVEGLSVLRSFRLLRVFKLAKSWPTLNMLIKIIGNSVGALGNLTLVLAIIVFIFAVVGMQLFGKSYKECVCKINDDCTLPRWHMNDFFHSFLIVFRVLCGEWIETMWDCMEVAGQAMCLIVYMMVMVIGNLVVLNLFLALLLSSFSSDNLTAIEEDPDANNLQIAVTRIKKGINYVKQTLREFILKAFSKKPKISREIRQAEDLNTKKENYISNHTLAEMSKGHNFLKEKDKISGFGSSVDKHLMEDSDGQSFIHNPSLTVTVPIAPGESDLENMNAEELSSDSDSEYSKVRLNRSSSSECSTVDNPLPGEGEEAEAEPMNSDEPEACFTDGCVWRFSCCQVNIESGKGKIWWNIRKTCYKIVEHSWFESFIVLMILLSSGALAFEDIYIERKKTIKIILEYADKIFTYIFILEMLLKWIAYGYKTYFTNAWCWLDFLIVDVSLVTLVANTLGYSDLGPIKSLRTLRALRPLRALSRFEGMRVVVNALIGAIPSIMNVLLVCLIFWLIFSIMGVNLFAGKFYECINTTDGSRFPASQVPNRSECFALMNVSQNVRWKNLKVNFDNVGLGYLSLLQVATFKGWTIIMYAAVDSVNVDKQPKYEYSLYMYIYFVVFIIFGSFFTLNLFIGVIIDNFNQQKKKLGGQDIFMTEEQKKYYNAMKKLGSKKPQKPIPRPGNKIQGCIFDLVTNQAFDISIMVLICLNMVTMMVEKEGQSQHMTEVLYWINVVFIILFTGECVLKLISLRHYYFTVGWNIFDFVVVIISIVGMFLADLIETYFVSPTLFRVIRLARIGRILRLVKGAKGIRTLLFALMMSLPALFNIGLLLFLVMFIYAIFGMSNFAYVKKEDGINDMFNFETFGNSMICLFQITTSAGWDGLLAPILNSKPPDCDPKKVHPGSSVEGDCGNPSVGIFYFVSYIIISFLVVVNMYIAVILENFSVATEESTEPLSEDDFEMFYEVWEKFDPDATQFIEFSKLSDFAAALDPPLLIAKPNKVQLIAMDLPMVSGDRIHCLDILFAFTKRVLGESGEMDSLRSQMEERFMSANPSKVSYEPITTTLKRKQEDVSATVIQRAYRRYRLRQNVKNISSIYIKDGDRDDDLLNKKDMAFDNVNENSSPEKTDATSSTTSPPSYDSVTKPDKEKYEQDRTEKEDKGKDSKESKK
The target of experiment [2] is T1, hNav1.7. As to the kind of experiment: cell-based. The experiment is classed as cell-based.
Experiment [3] concerns TTX-sensitive Nav channels in mouse DRG neuron.

Regarding `C#CC[C@H](N)C(=O)N[C@@H](Cc1ccc(O)cc1)C(=O)N[C@H]1CSSC[C@@H]2NC(=O)[C@@H]3CSSC[C@@H](C(=O)N[C@@H](CCCNC(=N)N)C(=O)N[C@@H](CCCCN)C(=O)N[C@H](C(=O)N[C@H](C(N)=O)[C@@H](C)CC)[C@@H](C)CC)NC(=O)[C@H](Cc4c[nH]c5ccccc45)NC(=O)[C@H](CC(C)C)NC(=O)[C@H](CCCCN)NC(=O)[C@H](CSSC[C@H](NC(=O)[C@H]([C@@H](C)O)NC(=O)[C@H](Cc4c[nH]c5ccccc45)NC(=O)[C@H](CCCC)NC(=O)[C@H](Cc4c[nH]c5ccccc45)NC(=O)[C@H](CCCCN)NC(=O)[C@H](CCC(N)=O)NC1=O)C(=O)N[C@@H](CC(=O)O)C(=O)N[C@@H](CO)C(=O)N[C@@H](CCCCN)C(=O)N[C@@H](CCCNC(=N)N)C(=O)N[C@@H](C)C(=O)N3)NC(=O)[C@H](CCCNC(=N)N)NC(=O)[C@H](CC(C)C)NC(=O)CNC(=O)[C@H](CCC(=O)O)NC2=O` [SEQ ID NO: 425, Pra-[Nle6]JzTx-V(1-29)], the IC50 (usually the concentration that inhibits the measured activity by half) stood at 180 pM at mouse Nav1.4 (PatchXpress, tonic block, mouse Nav1.4, read-out: PX mNav1.4 Tonic IC50); 511 pM at mNav1.7 (PatchXpress, tonic block, mouse Nav1.7, read-out: PX mNav1.7 Tonic IC50); 522 pM on rNav1.7 (PatchXpress, tonic block, rat Nav1.7, read-out: PX rNav1.7 Tonic IC50). At mouse Nav1.4 (ratio of PX tonic IC50, mouse Nav1.4 over mouse Nav1.7), the mNav1.4/mNav1.7 is 0.35. The mNav1.7/hNav1.7 on mNav1.7 (ratio of PX tonic IC50, mouse Nav1.7 over human Nav1.7) came to 0.43. The rNav1.7/hNav1.7 at rNav1.7 (ratio of PX tonic IC50, rat Nav1.7 over human Nav1.7) is 0.44.

For the compound `C#CC[C@H](N)C(=O)N[C@@H](Cc1ccc(O)cc1)C(=O)N[C@H]1CSSC[C@@H]2NC(=O)[C@@H]3CSSC[C@@H](C(=O)N[C@@H](CCCNC(=N)N)C(=O)N[C@@H](CCCCN)C(=O)N[C@H](C(=O)N[C@H](C(N)=O)[C@@H](C)CC)[C@@H](C)CC)NC(=O)[C@H](Cc4c[nH]c5ccccc45)NC(=O)[C@H](CC(C)C)NC(=O)[C@H](CCCCN)NC(=O)[C@H](CSSC[C@H](NC(=O)[C@H]([C@@H](C)O)NC(=O)[C@H](Cc4c[nH]c5ccccc45)NC(=O)[C@H](CCCC)NC(=O)[C@H](Cc4c[nH]c5ccccc45)NC(=O)[C@H](CCCCN)NC(=O)[C@H](CCC(N)=O)NC1=O)C(=O)N[C@@H](CC(=O)O)C(=O)N[C@@H](CO)C(=O)N[C@@H](CCCCN)C(=O)N[C@@H](CCCNC(=N)N)C(=O)N[C@@H](C)C(=O)N3)NC(=O)[C@H](CCCNC(=N)N)NC(=O)[C@H](CC(C)C)NC(=O)CNC(=O)[C@H](CCC(=O)O)NC2=O` [compound 425], the Nav1.6/Nav1.7 on hNav1.6 (ratio of PX tonic IC50 values) is 57. Moreover, the IC50 came to 67900 pM on hNav1.6 (read-out: PX hNav1.6 Tonic IC50); 1200 pM on hNav1.7 [2] (Table 15, read-out: PX hNav1.7 Tonic IC50); 5350 pM in experiment [3]. Besides, the “block of hNav1.7 current, in words” value is “fully blocked Nav1.7 current; also recorded: complete inhibition” at hNav1.7 [1] (held at −77 mV, partially inactivated state) and “fully blocked Nav1.7 current; also recorded: complete inhibition” at hNav1.7 [1] (held at −140 mV, fully non-inactivated state). At hNav1.7 [1] (WCPC format), the “improvement in hNav1.7 potency over wild type JzTx-V” value was ~200 fold and 190 fold. Moreover, the 1.x/1.7 turned out to be 1 at hNav1.7 [1] (fully non-inactivated); 1 on hNav1.7 [1] (partially inactivated); 6335 in experiment [3] (partially inactivated, mTTX-S / hNav1.7). Moreover, the “inhibition of TTX-sensitive sodium current, in words” value in experiment [3] (1 nM as printed, mouse DRG neurons) is “almost complete inhibition”. Also, in experiment [3] (100 nM), the “block of TTX-sensitive Nav current, in words” value is “blocked most TTX-sensitive Nav current”. For the same compound, the “fold more potent than JzTx-V in inhibition of TTX-sensitive current” value in experiment [3] (mouse DRG neurons) is recorded as “about 3 fold”.

“[Phe6,Atz(2 kDa EtO-PEG*-[Phe6,Atz13*]GpTx-1(1-34)1)13]GpTx-1(1-34) [Homodimeric Conjugate No. 3]”: the IC50 is 580 pM at hNav1.7 [1] (read-out: Nav1.7 whole cell patch clamp [WCPC] IC50) and 13000 pM on hNav1.7 [2] (read-out: Nav1.7 PX IC50). For the same compound, the Wash out entry at hNav1.7 [2] is “No”.
